Results as given in patent US12642799B2, “Composition and method for treating COVID-19” (University of South Florida, priority 2021, dated 2026).
Where two headings read alike, the source gives them in different places.

Tests used:
[1] = system: SARS CoV-2 infected Caco2 cells; format: cell-based
IL-6, IL-1β, and TNFα = format: cell-based
[2] = system: GFP-CoV-2 infected mature adipocytes; format: cell-based, SARS CoV-2; details: for reduction in infection by cytoimmunochemical staining (SARS CoV-2/ACE2): mature adipocytes, FIG. 3C
[3] = system: serum inflammatory markers and anti-inflammatory cytokines; details: Type 2 diabetic patients; cited from earlier work
CoV-2 infection = format: in vivo, human; details: obese Type 2 diabetic patient, oral, retested twice over several weeks

Row | SMILES | expression of SARS CoV-2 N protein (fold change) [1] | expression of SARS CoV-2 S protein (fold change) [1] | expression of IL-1β (fold change) (IL-6, IL-1β, and TNFα) | expression of IL-6 (fold change) (IL-6, IL-1β, and TNFα) | expression of TNFα (fold change) (IL-6, IL-1β, and TNFα) | inhibition of viral infection (integrated density of GFP expression) [2] | reduction in infection by cytoimmunochemical staining (SARS CoV-2/ACE2) [2] | anti-inflammatory cytokines [3] | serum levels of inflammatory markers [3] | virus test after treatment (CoV-2 infection) | inhibition of viral infection (integrated density of GFP expression) ([2]; […], metformin 10 mM, sitagliptin 20 uM)
1 | CN(C)C(=N)N=C(N)N [metformin] | decreasing expression | decreasing expression | decreasing expression | decreasing expression | decreasing expression | inhibited viral infection | reduction in infection | – | – | – | –
2 | N[C@@H](CC(=O)N1CCn2c(nnc2C(F)(F)F)C1)Cc1cc(F)c(F)cc1F [sitagliptin] | larger decrease than metformin | larger decrease than metformin | decreasing expression | decreasing expression | decreasing expression | – | highest reduction | increased | significantly decreased | tests negative for the virus | highest reduction
